Values joined by “and” are separate entries in the source; they are usually repeats but may differ in a detail not shown here. Identical values can stand only once.
Test system: TSC2−/− MEFs
Test: Rapamycin screen: SILAC quantitative phosphoproteomics (two biological replicates)
Type: cell-based, mouse
Protocol: Two sets of large-scale, quantitative phospho-proteomics experiments were performed to fully define how mTOR-containing complexes signal to downstream effectors (FIG. 1A). The first SILAC experiment (rapamycin screen) was performed using growth factor-deprived TSC2−/− mouse embryonic fibroblasts (MEFs).
Two populations of TSC2−/− cells were grown in parallel, one in conventional media (“light”) and the other in media containing [^13C6^15N2]lysine and [^13C6^15N4]arginine (“heavy”) (FIG. 1A and Table 5). […] We performed two biological replicates of this experimental design with cross-labeling (swapping the labeled state of the rapamycin-treated cells, Table 5), from which a total of 14,635 (FDR=0.25%) and 32,500 (FDR=0.28%) phosphopeptides were identified, respectively. These corresponded to identification of at least 4,484 and 6,832 unique phosphorylation sites on 1,615 and 1,866 proteins, respectively. The quantitation was highly accurate (Table 5) with 93.7% of the phosphoproteome changing less than 50% in abundance between the rapamycin-treated (light) and control (heavy) cells (second biological replicate experiment, Median Log2(H/L)=−0.02 and standard deviation Log2(H/L)=0.53, FIG. 1A). […] Note that the Rapamycin screen includes two biological replicates.
Using this criteria, several hundred peptides (corresponding to 148 and 85 proteins respectively, in the two biological replicates, Table 11) were determined to contain rapamycin-sensitive phosphorylation sites. […] Note that there are two biological replicate experiments for the rapamycin screen (“Table 11 Rapa Replicate 1,” and “Table 11 Rapa Replicate 2,” respectively) and one Ku-0063749 replicate (“Table 11 Ku”). Treatment for the light and heavy cells in each experiment is described in FIG. 1C. We observed a similar distribution for the phosphopeptides in the […] biological replicate experiment and found 85 proteins (Table 11) that carried rapamycin-sensitive phosphorylation sites.
The analysis identified 4,484 and 6,832 unique phosphorylation sites on 1,615 and 1,866 proteins from two biological replicate experiments, respectively, and achieved a high level of accuracy in quantitation (Table 5). […] A representative identification of the known rapamycin-sensitive phosphorylation sites on ribosomal protein S6 is shown in FIG. 1B.
TSC2−/− MEFs were used in the rapamycin screen due to constitutive hyperactivation of mTORC1 signaling in this cell line. Cells were grown in light ([^12C6^14N2]Lys, [^12C6^14N4]Arg) and heavy ([^13C6^15N2]Lys, [^13C6^15N4]Arg) DMEM (Cambridge Isotope Labs), respectively. Both light and heavy DMEM were supplemented with 10% dialyzed FBS (Invitrogen). Cells were serum-deprived for 17 hours and cells were cultured inheavy media were treated with 20 nM rapamycin for two hours. We performed two biological replicates of this experimental design with cross-labeling (swapping the labeled state of the rapamycin-treated cells).

[1] = downregulated phosphorylation, TSC2−/− MEFs, 20 nM rapamycin 2 h vs DMSO, second biological replicate

CO[C@H]1C[C@@H]2CC[C@@H](C)[C@@](O)(O2)C(=O)C(=O)N2CCCC[C@H]2C(=O)O[C@H]([C@H](C)C[C@@H]2CC[C@@H](O)[C@H](OC)C2)CC(=O)[C@H](C)/C=C(\C)[C@@H](O)[C@@H](OC)C(=O)[C@H](C)C[C@H](C)/C=C/C=C/C=C/1C [rapamycin]
Log2 Area (H/L) Ratio (Ahctf1 phosphopeptide NGVSLFNS*PKTEQPSPVVHSFPHPELPEAFVGTPISNTSQR, SEQ ID NO: 1120, rapamycin screen): 1.0661 | Log2 Area (H/L) Ratio (Ahctf1 phosphopeptide NGVSLFNSPK@T*EQPSPVVHSFPHPELPEAFVGTPISNTSQR^, SEQ ID NO: 1119, rapamycin screen): 1.0661 | Log2 Area (H/L) Ratio (Ahctf1 phosphopeptide NGVSLFNSPK@TEQPSPVVHS*FPHPELPEAFVGTPISNTSQR^, SEQ ID NO: 1121, rapamycin screen): 1.0661 | Log2 Area (H/L) Ratio (Ahnak phosphopeptide S*NS*FSDERAEFSAPSTPTGTLEFAGGDAK@, SEQ ID NO: 1147, rapamycin screen): 1.0143 | Log2 Area (H/L) Ratio (Ahnak phosphopeptide S*NS*FSDEREFSAPSTPTGTLEFAGGDAK, SEQ ID NO: 1148, rapamycin screen): 1.0143 | Log2 Area (H/L) Ratio (Ahnak phosphopeptide S*NS*FSDEREFSAPSTPTGTLEFAGGDAK, SEQ ID NO: 1149, rapamycin screen): 1.0143 | Log2 Area (H/L) Ratio (Arhgap17 phosphopeptide LGEQGPEPGPT*PPQT*PT*PPST*PPLAK, SEQ ID NO: 1124, rapamycin screen): 1.0618 | Log2 Area (H/L) Ratio (Arid1a phosphopeptide GPS*PSPVGS*PASVAQSR^, SEQ ID NO: 1151, rapamycin screen): 1.0107 | Log2 Area (H/L) Ratio (Atxn2 phosphopeptide TS*PAGGTWSSVVSGVPR, SEQ ID NO: 1157, rapamycin screen): 1.0015 | Log2 Area (H/L) Ratio (Atxn2 phosphopeptide TS*PAGGTWSSVVSGVPR^, SEQ ID NO: 1156, rapamycin screen): 1.0015 | Log2 Area (H/L) Ratio (Azi1 phosphopeptide ANNAGASIYPTGPADPCPPASES*S*PEQWQSPEDKPQDIHSQGEAR, SEQ ID NO: 1138, rapamycin screen): 1.0268 | Log2 Area (H/L) Ratio (Dlg5 phosphopeptide SS*SHLDPAATPHSTLQGSSAGTPEHPSVIDPLMEQDEGPGTPPAK@, SEQ ID NO: 1129, rapamycin screen): 1.0498 | Log2 Area (H/L) Ratio (Eif4ebp1 phosphopeptide NS*PVAK@T*PPK@DLPAIPGVTSPTSDEPPM#QASQSQLPSSPEDK@, SEQ ID NO: 1143, rapamycin screen): 1.0227 | Log2 Area (H/L) Ratio (Eif4ebp1 phosphopeptide NS*PVAKT*PPKDLPAIPGVTSPT*SDEPPMQASQSQLPSS*PEDK, SEQ ID NO: 1150, rapamycin screen): 1.0129 | Log2 Area (H/L) Ratio (Eif4ebp2 phosphopeptide TVAISDAAQLPQDYCTT*PGGTLFSTT*PGGTRIIYDR, SEQ ID NO: 1137, rapamycin screen): 1.0271 | Log2 Area (H/L) Ratio (Eif4ebp2 phosphopeptide TVAISDAAQLPQDYCTT*PGGTLFSTT*PGGTR^IIYDR^, SEQ ID NO: 1136, rapamycin screen): 1.0271 | Log2 Area (H/L) Ratio (Erbb2ip phosphopeptide VGS*EHSLLDPPGK, SEQ ID NO: 1135, rapamycin screen): 1.0307 | Log2 Area (H/L) Ratio (Erf phosphopeptide FPPST*PSEVLS*PTEDPRS*PPACSSSSSSLFSAVVAR, SEQ ID NO: 1154, rapamycin screen): 1.0039 | Log2 Area (H/L) Ratio (Fam129a phosphopeptide HNLFEDNM#ALPSESVSS*LTDLK, SEQ ID NO: 1142, rapamycin screen): 1.0232 | Log2 Area (H/L) Ratio (Fam129a phosphopeptide HNLFEDNMALPSES*VSSLTDLK@TAMGS*NQAS*PAR^R^, SEQ ID NO: 1152, rapamycin screen): 1.0048 | Log2 Area (H/L) Ratio (Fam129a phosphopeptide HNLFEDNMALPSESVSSLT*DLK@TAMGS*NQAS*PAR^R^, SEQ ID NO: 1153, rapamycin screen): 1.0048 | Log2 Area (H/L) Ratio (Hells phosphopeptide S*INYSELDQFPSELEK, SEQ ID NO: 1132, rapamycin screen): 1.0332 | Log2 Area (H/L) Ratio (Hells phosphopeptide S*INYSELDQFPSELEK@, SEQ ID NO: 1133, rapamycin screen): 1.0332 | Log2 Area (H/L) Ratio (Hells phosphopeptide S*INYSELDQFPSELEK@, SEQ ID NO: 1134, rapamycin screen): 1.0332 | Log2 Area (H/L) Ratio (Ncaph2 phosphopeptide NGS*PVPVPDIS*QEPDGPALSGGEEDAEDGAEPLEVALEPAEPR^, SEQ ID NO: 1127, rapamycin screen): 1.0598 | Log2 Area (H/L) Ratio (Ncaph2 phosphopeptide NGS*PVPVPDISQEPDGPALS*GGEEDAEDGAEPLEVALEPAEPR, SEQ ID NO: 1126, rapamycin screen): 1.0598 | Log2 Area (H/L) Ratio (Ncaph2 phosphopeptide NGS*PVPVPDISQEPDGPALS*GGEEDAEDGAEPLEVALEPAEPR^, SEQ ID NO: 1125, rapamycin screen): 1.0598 | Log2 Area (H/L) Ratio (Pbx1 phosphopeptide TAVTATNVSAHGSQANS*PSTPNSAGGY*PSPCYQPDR^R^, SEQ ID NO: 1128, rapamycin screen): 1.054 | Log2 Area (H/L) Ratio (Pds5b phosphopeptide AES*PETSAVESTQST*PQK, SEQ ID NO: 1141, rapamycin screen): 1.0246 | Log2 Area (H/L) Ratio (Pds5b phosphopeptide AES*PETSAVESTQST*PQK@, SEQ ID NO: 1139, rapamycin screen): 1.0246 | Log2 Area (H/L) Ratio (Pds5b phosphopeptide AES*PETSAVESTQST*PQK@, SEQ ID NO: 1140, rapamycin screen): 1.0246 | Log2 Area (H/L) Ratio (Phldb1 phosphopeptide WAAHGTS*PEDFSLTLGAR^, SEQ ID NO: 1118, rapamycin screen): 1.068 | Log2 Area (H/L) Ratio (Ranbp10 phosphopeptide SQDS*YPGS*PSLSPR, SEQ ID NO: 1161, rapamycin screen): 1.0009 | Log2 Area (H/L) Ratio (Ranbp10 phosphopeptide SQDSYPGS*PSLS*PR, SEQ ID NO: 1158, rapamycin screen): 1.0009 | Log2 Area (H/L) Ratio (Ranbp10 phosphopeptide SQDSYPGS*PSLS*PR^, SEQ ID NO: 1159, rapamycin screen): 1.0009 | Log2 Area (H/L) Ratio (Ranbp10 phosphopeptide SQDSYPGS*PSLS*PR^, SEQ ID NO: 1160, rapamycin screen): 1.0009 | Log2 Area (H/L) Ratio (Ranbp10 phosphopeptide SQDSYPGS*PSLS*PR^, SEQ ID NO: 1162, rapamycin screen): 1.0009 | Log2 Area (H/L) Ratio (Rb1 phosphopeptide DGEGPDNLEPACPLSLPLQGNHTAADMYLS*PLRS*PK, SEQ ID NO: 1123, rapamycin screen): 1.0618 | Log2 Area (H/L) Ratio (Rb1 phosphopeptide DGEGPDNLEPACPLSLPLQGNHTAADMYLS*PLR^S*PK@, SEQ ID NO: 1122, rapamycin screen): 1.0618 | Log2 Area (H/L) Ratio (Samhd1 phosphopeptide CDGS*PR^T*PPS*TPPATANLSADDDFQNTDLR^, SEQ ID NO: 1155, rapamycin screen): 1.0027 | Log2 Area (H/L) Ratio (Shroom2 phosphopeptide SRS*S*PSTDHYSQEVPVEPNR, SEQ ID NO: 1144, rapamycin screen): 1.0176 | Log2 Area (H/L) Ratio (Shroom2 phosphopeptide SRS*S*PSTDHYSQEVPVEPNR, SEQ ID NO: 1145, rapamycin screen): 1.0176 | Log2 Area (H/L) Ratio (Shroom2 phosphopeptide SR^S*S*PSTDHYSQEVPVEPNR^, SEQ ID NO: 1146, rapamycin screen): 1.0176 | Log2 Area (H/L) Ratio (Tox4 phosphopeptide LSTTPS*PTNS*LHEDGVDDFRR, SEQ ID NO: 1130, rapamycin screen): 1.0342 | Log2 Area (H/L) Ratio (Tox4 phosphopeptide LSTTPS*PTNS*LHEDGVDDFRR, SEQ ID NO: 1164, rapamycin screen): 1.0005 | Log2 Area (H/L) Ratio (Tox4 phosphopeptide LSTTPS*PTNS*LHEDGVDDFR^R^, SEQ ID NO: 1131, rapamycin screen): 1.0342 | Log2 Area (H/L) Ratio (Tox4 phosphopeptide LSTTPS*PTNS*LHEDGVDDFR^R^, SEQ ID NO: 1163, rapamycin screen): 1.0005 | Median (treated/ctrl) fold-change of phosphopeptide Eif4ebp1 S64, T69 [1]: 2.8 fold | Median (treated/ctrl) fold-change of phosphopeptide Eif4ebp2 S65, T70 [1]: 39.1 fold | Median (treated/ctrl) fold-change of phosphopeptide Eif4ebp2 T37, T46 [1]: 2.3 fold | Median (treated/ctrl) fold-change of phosphopeptide LSSLRAS*TS*KSES*S*QK, RPS6 S240, S242, S246, S247 [1]: 4.5 fold | Median (treated/ctrl) fold-change of phosphopeptide MNILSS*QS*PLHPSTLNAVIHR, Grb10 S421, S423 (isoform 3; S501/S503 in isoform 1) [1]: more than 27 fold and 27.3 fold | Median (treated/ctrl) fold-change of phosphopeptide RLS*S*LRASTSK, RPS6 S235, S236 [1]: 30.5 fold | Median (treated/ctrl) fold-change of phosphopeptide Rps6kb1 S441, T444, S447 [1]: 2.8 fold | Median (treated/ctrl) fold-change of phosphopeptide S*LPVSVPVWAFK, Akt1s1 S184 [1]: 2.2 fold | Median (treated/ctrl) fold-change of phosphopeptide SFS*KEVEER, Eif4g1 S1189 [1]: 2.8 fold | Median (treated/ctrl) fold-change of phosphopeptide SRT*GS*ESSQTGASATSGR, Eif4b T420, S422 [1]: 4.3 fold | Median (treated/ctrl) fold-change of phosphopeptide TGS*ESS*QTGASATSGR, Eif4b S422, S425 [1]: 4.6 fold | Median (treated/ctrl) fold-change of phosphopeptide TTS*FAESCKPVQQPSAFGSMK, Gsk3β S9 [1]: approximately 3.3 fold and 3.3 fold | Median (treated/ctrl) fold-change of phosphopeptide ULK1 S747, S757, T763 [1]: 4 fold and 4.1 fold | Median (treated/ctrl) fold-change of triply phosphorylated Grb10 peptide T76, S96, S104 [1]: 5.4 fold | decrease of 4EBP1 T36/T45 phosphorylation after rapamycin treatment (rapamycin screen): 20%
